Results published in US11477982B2, “2-amino-5-oxyalkyl-pyrimidine derivatives and their use for controlling undesired plant growth” (Bayer CropScience Aktiengesellschaft, priority 2017, dated 2022).

How the values were obtained:
Assay type in all cases: in vivo
[1] = test system: AMARE: Amaranthus retroflexus; experiment: Post-emergence herbicidal effect
Method in brief: (§1)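 Greenhouse, sandy loam; spray at one-leaf stage (2–3 wk post-sowing); WP/EC in water + 0.5% additive, 600 l/ha; visual rating ~3 wk later vs untreated, 0–100%.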

AVEFA: Avena fatua [2] = experiment: Post-emergence herbicidal effect
Method in brief: as §1

STEME: Stellaria media [3] = experiment: Post-emergence herbicidal effect
Method in brief: as §1

[4] = test system: POLCO: Polygonum convolvulus; experiment: Post-emergence herbicidal effect
Method in brief: as §1

VERPE: Veronica persica [5] = experiment: Post-emergence herbicidal effect; settings: dosage 320 g/ha
Method in brief: as §1

VIOTR: Viola tricolor [6] = experiment: Post-emergence herbicidal effect
Method in brief: as §1

[7] = test system: ABUTH: Abutilon theophrasti; experiment: Post-emergence herbicidal effect
Method in brief: as §1

PHBPU: Ipomoea purpurea [8] = experiment: Post-emergence herbicidal effect
Method in brief: as §1

SETVI: Setaria viridis [9] = experiment: Post-emergence herbicidal effect
Method in brief: as §1

[10] = test system: ECHCG: Echinochloa crus-galli; experiment: Post-emergence herbicidal effect
Method in brief: as §1

[11] = test system: AMARE: Amaranthus retroflexus; experiment: Pre-emergence herbicidal effect; settings: pre-emergence; dosage 320 g/ha
Method in brief: (§2)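 Seeds sown in pots and covered with soil; compounds formulated as WP or EC were sprayed onto the soil surface as aqueous suspension/emulsion with 0.5% additive at 600 l/ha water. Greenhouse growth for about 3 weeks, then visual scoring in % versus untreated controls (100% = plants died, 0% = like control).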

[12] = test system: POLCO: Polygonum convolvulus; experiment: Pre-emergence herbicidal effect; settings: dosage 320 g/ha
Method in brief: as §2

VERPE: Veronica persica [13] = experiment: Pre-emergence herbicidal effect; settings: dosage 320 g/ha
Method in brief: as §2

VIOTR: Viola tricolor [14] = experiment: Pre-emergence herbicidal effect; settings: dosage 320 g/ha
Method in brief: as §2

[15] = test system: MATIN: Matricaria inodora; experiment: Pre-emergence herbicidal effect; settings: pre-emergence; dosage 320 g/ha
Method in brief: as §2

STEME: Stellaria media [16] = experiment: Pre-emergence herbicidal effect; settings: pre-emergence; dosage 320 g/ha
Method in brief: as §2

LOLRI: Lolium rigidum [17] = experiment: Pre-emergence herbicidal effect; settings: dosage 320 g/ha
Method in brief: as §2

[18] = test system: ALOMY: Alopecurus myosuroides; experiment: Pre-emergence herbicidal effect; settings: pre-emergence; dosage 320 g/ha
Method in brief: as §2

AVEFA: Avena fatua [19] = experiment: Pre-emergence herbicidal effect; settings: dosage 320 g/ha
Method in brief: as §2

[20] = test system: ABUTH: Abutilon theophrasti; experiment: Pre-emergence herbicidal effect; settings: dosage 320 g/ha
Method in brief: as §2

HORMU: Hordeum murinum = experiment: Pre-emergence herbicidal effect; settings: pre-emergence; dosage 320 g/ha
Method in brief: as §2

PHBPU: Ipomoea purpurea [21] = experiment: Pre-emergence herbicidal effect; settings: dosage 320 g/ha
Method in brief: as §2

SETVI: Setaria viridis [22] = experiment: Pre-emergence herbicidal effect; settings: pre-emergence; dosage 320 g/ha
Method in brief: as §2

[23] = test system: ECHCG: Echinochloa crus-galli; experiment: Pre-emergence herbicidal effect; settings: pre-emergence; dosage 320 g/ha
Method in brief: as §2

LOLRI: Lolium rigidum [24] = experiment: Post-emergence herbicidal effect
Method in brief: as §1

[25] = test system: ALOMY: Alopecurus myosuroides; experiment: Post-emergence herbicidal effect
Method in brief: as §1

[26] = test system: MATIN: Matricaria inodora; experiment: Post-emergence herbicidal effect
Method in brief: as §1

Structure (SMILES) | Herbicidal action against AMARE ([1]; dosage 80 g/ha) [%] | Herbicidal action against AVEFA (AVEFA: Avena fatua [2]; dosage 80 g/ha) [%] | Herbicidal action against AVEFA (AVEFA: Avena fatua [2]; dosage 320 g/ha) [%] | Herbicidal action against AMARE ([1]; dosage 320 g/ha) [%] | Herbicidal action against STEME (STEME: Stellaria media [3]; dosage 80 g/ha) [%] | Herbicidal action against STEME (STEME: Stellaria media [3]; dosage 320 g/ha) [%] | Herbicidal action against POLCO ([4]; dosage 320 g/ha) [%] | Herbicidal action against VERPE (VERPE: Veronica persica [5]) [%] | Herbicidal action against VIOTR (VIOTR: Viola tricolor [6]; dosage 320 g/ha) [%] | Herbicidal action against ABUTH ([7]; dosage 320 g/ha) [%] | Herbicidal action against SETVI (SETVI: Setaria viridis [9]; dosage 320 g/ha) [%] | Herbicidal action against ECHCG ([10]; dosage 80 g/ha) [%] | Herbicidal action against ECHCG ([10]; dosage 320 g/ha) [%] | Herbicidal action against AMARE [11] [%] | Herbicidal action against POLCO [12] [%] | Herbicidal action against VERPE (VERPE: Veronica persica [13]) [%] | Herbicidal action against VIOTR (VIOTR: Viola tricolor [14]) [%] | Herbicidal action against MATIN [15] [%] | Herbicidal action against STEME (STEME: Stellaria media [16]) [%] | Herbicidal action against LOLRI (LOLRI: Lolium rigidum [17]) [%] | also measured
Cc1ccc2c(c1)[C@H](Nc1ncc([C@H](C)O)c(N)n1)[C@@H](C)C2 (racemic) [drawing 11, reference compound] | 80 | 0 | 50 | – | – | – | – | – | – | – | – | – | – | – | – | – | – | – | – | – | –
Cc1ccc2c(c1)[C@H](Nc1ncc(C(C)O)cn1)[C@@H](C)C2 (stereo partly shown) [Example 1.2] | 100 | 60 | 80 | 100 | 90 | 100 | 90 | 90 | 80 | 80 | 90 | 40 | 100 | 100 | 100 | 100 | 100 | 100 | – | – | Herbicidal action against POLCO ([4]; dosage 80 g/ha): 90%; Herbicidal action against PHBPU (PHBPU: Ipomoea purpurea [8]; dosage 80 g/ha): 40%; Herbicidal action against SETVI (SETVI: Setaria viridis [9]; dosage 80 g/ha): 90%
Cc1nc(N[C@@H]2CCc3ccccc32)ncc1C(C)(C)O [Example 1.54] | – | – | – | 90 | – | 90 | – | 90 | 90 | 80 | 80 | – | 100 | 100 | 100 | 100 | 100 | 100 | 100 | 100 | Herbicidal action against ALOMY [18]: 100%; Herbicidal action against AVEFA (AVEFA: Avena fatua [19]): 80%; Herbicidal action against ABUTH [20]: 100%; Herbicidal action against HORMU (HORMU: Hordeum murinum): 100%; Herbicidal action against PHBPU (PHBPU: Ipomoea purpurea [21]): 100%; Herbicidal action against SETVI (SETVI: Setaria viridis [22]): 100%; Herbicidal action against ECHCG [23]: 100%
CCc1ccc2c(c1)[C@H](Nc1ncc(C(C)(C)O)c(C)n1)CC2 [Example 1.57] | – | – | – | 100 | – | 90 | – | 90 | 90 | 90 | 90 | – | 100 | 100 | 100 | 100 | 100 | 100 | 100 | 100 | Herbicidal action against ALOMY [18]: 100%; Herbicidal action against AVEFA (AVEFA: Avena fatua [19]): 100%; Herbicidal action against ABUTH [20]: 100%; Herbicidal action against HORMU (HORMU: Hordeum murinum): 100%; Herbicidal action against PHBPU (PHBPU: Ipomoea purpurea [21]): 100%; Herbicidal action against SETVI (SETVI: Setaria viridis [22]): 100%; Herbicidal action against ECHCG [23]: 100%
C=C(C)COC(C)(C)c1cnc(N[C@H]2c3cc(C)ccc3C[C@@H]2C)nc1 [Example 1.63] | – | – | – | 100 | – | 90 | – | 90 | 90 | 90 | 100 | – | 100 | 100 | 100 | 100 | 100 | 100 | 100 | 100 | Herbicidal action against ALOMY [18]: 100%; Herbicidal action against AVEFA (AVEFA: Avena fatua [19]): 90%; Herbicidal action against ABUTH [20]: 100%; Herbicidal action against HORMU (HORMU: Hordeum murinum): 90%; Herbicidal action against PHBPU (PHBPU: Ipomoea purpurea [21]): 100%; Herbicidal action against SETVI (SETVI: Setaria viridis [22]): 100%; Herbicidal action against ECHCG [23]: 100%
Cc1ccc2c(c1)[C@H](Nc1ncc(C(C)(C)O)c(N)n1)[C@@H](C)C2 [drawing 9, reference compound] | – | 0 | 0 | 70 | – | – | – | – | – | – | 30 | 0 | 10 | – | – | – | – | – | – | – | Herbicidal action against LOLRI (LOLRI: Lolium rigidum [24]; dosage 80 g/ha): 0%; Herbicidal action against LOLRI (LOLRI: Lolium rigidum [24]; dosage 320 g/ha): 0%; Herbicidal action against ALOMY ([25]; dosage 80 g/ha): 0%; Herbicidal action against ALOMY ([25]; dosage 320 g/ha): 10%; Herbicidal action against ABUTH ([7]; dosage 80 g/ha): 30%
Cc1ccc2c(c1)[C@H](Nc1ncc(C(C)(C)O)c(N)n1)[C@@H](C)C2 [drawing 10, reference compound] | 60 | – | 0 | 70 | – | – | – | – | – | – | 30 | 0 | 10 | – | – | – | – | – | – | – | Herbicidal action against LOLRI (LOLRI: Lolium rigidum [24]; dosage 80 g/ha): 0%; Herbicidal action against LOLRI (LOLRI: Lolium rigidum [24]; dosage 320 g/ha): 0%; Herbicidal action against ALOMY ([25]; dosage 80 g/ha): 0%; Herbicidal action against ALOMY ([25]; dosage 320 g/ha): 10%; Herbicidal action against ABUTH ([7]; dosage 80 g/ha): 30%; Herbicidal action against SETVI (SETVI: Setaria viridis [9]; dosage 80 g/ha): 0%
Cc1ccc2c(c1)[C@H](Nc1ncc(C(C)(C)O)c(N)n1)[C@@H](C)C2 [drawing 12, reference compound] | – | – | – | – | 0 | 0 | 0 | – | – | – | – | – | – | – | – | – | – | – | – | – | Herbicidal action against POLCO ([4]; dosage 80 g/ha): 0%; Herbicidal action against VIOTR (VIOTR: Viola tricolor [6]; dosage 80 g/ha): 60%; Herbicidal action against MATIN ([26]; dosage 80 g/ha): 0%; Herbicidal action against MATIN ([26]; dosage 320 g/ha): 60%; Herbicidal action against PHBPU (PHBPU: Ipomoea purpurea [8]; dosage 320 g/ha): 50%
Cc1ccc2c(c1)[C@H](Nc1ncc(C(C)(C)O)c(N)n1)[C@@H](C)C2 [drawing 13, reference compound] | – | – | – | – | 0 | 0 | 0 | – | – | – | – | – | – | – | – | – | – | – | – | – | Herbicidal action against VIOTR (VIOTR: Viola tricolor [6]; dosage 80 g/ha): 60%; Herbicidal action against MATIN ([26]; dosage 80 g/ha): 0%; Herbicidal action against PHBPU (PHBPU: Ipomoea purpurea [8]; dosage 320 g/ha): 50%
